Laboratory results taken from US20170292961A1, “SYSTEMS AND METHODS FOR ASSESSING INTER-CELL COMMUNICATION” (Q-STATE BIOSCIENCES, INC., priority 2014, published 2017).
Substitutions are numbered along the chain they refer to. Numbers in names are those of the source. Where “and” joins values, the source holds several entries; their conditions need not be identical. Identical values can stand only once. Like-named read-outs stand apart in the source and are kept apart here. Blank lines part the entries; values can stand above or below the molecule they belong to.

Tests used:
[1] = tested on: estrogen sulfotransferase; settings: pathway of metabolism of birth control pill ingredients; cited from earlier work
[2] = tested on: cardiomyocytes
From the text: In some embodiments, the reporter cells also include an optical ion sensor that indicates an intracellular concentration of an ion, for example, a calcium reporter. In a preferred embodiment, the optical voltage reporter and the calcium reporter are provided together within a fusion protein. For example, the fusion protein may be CaViar which includes a calcium reporter and a voltage indicator. Using such a fusion protein, detecting the optical signal may include detecting an action potential and calcium transients.
The columns show results from increasing concentrations and each panel is fluorescence over time.

[3] = tested on: membrane voltage; settings: literature indicators; cited from earlier work
[4] = tested on: patient-derived neurons; assay: Spike frequency of patient-derived neurons exposed to an anticonvulsant; type: cell-based; settings: for spike frequency: in DMSO versus DMSO alone
From the text: FIG. 52 illustrates the results of exposing patient-derived neurons to acute doses of an anticonvulsant. A frequency of spiking is plotted over unitless scaled stimulus strength. Angled vertical lines are drawn onto the graph to aid in showing which data points correspond to one another. Asterisks are used to indicate a significance of a difference. […] FIG. 53 illustrates the results of exposing patient-derived neurons to chronic doses of an anticonvulsant. A frequency of spiking is plotted over unitless scaled stimulus strength. After exposure to STR in DMSO (versus exposure to the DMSO alone), spike frequency is decreased. […] Thus it can be seen that methods and compositions of the invention may be used to evaluate signal propagation between cells such as cardiomyocytes or neurons.

[5] = tested on: neurons
From the text: Methods of the invention may be used to evaluate the effects of compounds on neurons. In some embodiments, the cells that include the optical voltage reporter are neurons and those neurons are exposed to a voltage-gated potassium channel blocker such as tetraethylammonium.

[6] = tested on: membrane voltage; assay: Speed and sensitivity of fluorescent voltage indicators
From the text: Membrane voltage can be measured with a precision of <1 mV in a 1 s interval. […] Arch 3 WT retains the photo-induced proton-pumping, so illumination slightly hyperpolarizes the cell. […] The voltage-indicating protein reporters, sometimes referred to as genetically encoded voltage indicators (GEVIs), may be excited with a laser at wavelengths between 590-640 nm, and the emission is in the near infrared, peaked at 710 nm.

[7] = tested on: HEK 293T cells; assay: Arch fluorescence versus membrane potential in HEK cells under whole-cell voltage clamp; type: cell-based, human
From the text: An optical reporter such as Arch 3 may be expressed in human embryonic kidney 293 (HEK293T) cells. Fluorescence of Arch 3 in HEK 293T cells was readily imaged in an inverted fluorescence microscope with red illumination (=640 nm, I=540 W/cm2), a high numerical aperture objective, a Cy5 filter set, and an EMCCD camera.
Fluorescence of Arch 3 in HEK 293 cells was readily imaged in an inverted fluorescence microscope with red illumination (lambda=640 nm, I=540 W/cm̂2), a high numerical aperture objective, a Cy5 filter set, and an EMCCD camera. […] Cells not expressing Arch were not fluorescent.
The fluorescence of HEK cells expressing Arch was highly sensitive to membrane potential, as determined via whole-cell voltage clamp. We developed an algorithm to combine pixel intensities in a weighted sum such that the output, was a nearly optimal estimate of membrane potential V determined by conventional electrophysiology.
The fluorescence was divided by its value at −150 mV. The fluorescence increased by a factor of 2 between −150 mV and +150 mV, with a nearly linear response throughout this range (FIG. 35). The response of fluorescence to a step in membrane potential occurred within the 500 micro s time resolution of our imaging system on both the rising and falling edge.
The overshoots on the rising and falling edges were an artifact of electronic compensation circuitry. Data were an average of 20 cycles. […] Cells not expressing Arch 3 were not fluorescent. […] Application of a sinusoidally varying membrane potential led to sinusoidally varying fluorescence; at f=1 kHz, the fluorescence oscillations retained 55% of their low-frequency amplitude (FIG. 37). Arch reported voltage steps as small as 10 mV, with an accuracy of 625 micro V/(Hz)̂(1/2) over timescales<12 s (FIG. 38). Over longer timescales laser power fluctuations and cell motion degraded the accuracy.

Molecule: CO[C@H]1/C=C/O[C@@]2(C)Oc3c(C)c(O)c4c(O)c(c(/C=N/N5CCN(C)CC5)c(O)c4c3C2=O)NC(=O)/C(C)=C\C=C\[C@H](C)[C@H](O)[C@@H](C)[C@@H](O)[C@@H](C)[C@H](OC(C)=O)[C@@H]1C [Rifampin]
induction of estrogen sulfotransferase [1]: induce

AP30 [2]: decrease
AP60 [2]: decrease
AP90 [2]: decrease
Ca amplitude [2]: decrease
average action potential waveform [2]: AP prolongation
calcium trace (fluorescence over time) [2]: severely diminished
rise time [2]: increase
voltage trace (fluorescence over time) [2]: less pronounced effect
Molecule: COc1c(N2C[C@@H]3CCCN[C@@H]3C2)c(F)cc2c(=O)c(C(=O)O)cn(C3CC3)c12 [moxifloxacin]

AP30 [2]: decrease
AP60 [2]: decrease
AP90 [2]: decrease
Ca amplitude [2]: decrease
average action potential waveform [2]: diverge dramatically
calcium trace (fluorescence over time) [2]: dramatically diminished
rise time [2]: increase
rise time (average, FIG. 46) [2]: interferes with rise time
voltage trace (fluorescence over time) [2]: dramatically diminished
Molecule: O=C(NCC1CCCCN1)c1cc(OCC(F)(F)F)ccc1OCC(F)(F)F (stereo not drawn) [flecainide]

Molecule: Flash
f (delta F/F per 100 mV) [3]: 5.1%
response time [3]: 2.8 to 85 ms

Molecule: CC(C)(C)C(O)/C=C/c1ccc2c(c1)OCO2 (stereo not drawn) [stiripentol]
spike frequency ([4]; acute doses): significantly decreased
spike frequency ([4]; chronic doses): decreased
impact on spike frequency, acute versus chronic exposure ([4]; visual comparison of FIG. 52 to FIG. 53): acute STR has a more severe impact on spike frequency than chronic exposure

Molecule: CC[N+](CC)(CC)CC [tetraethylammonium]
instantaneous firing rate ([5]; after a few seconds of increasing stimulus intensity, before vs after exposure): unexposed cells (“before”) consistently fire at a higher rate
Ahp ([5]; after exposure): change in Ahp
number of spiking cells ([5]; after exposure): reduction in the number of spiking cells
return of fluorescence to baseline (average waveform) ([5]; after exposure): does not return to baseline to the degree it did before exposure
spike height ([5]; after exposure): lower
instantaneous firing rate ([5]; lower stimulus intensities (time=0 to about 2 s), exposed cells): a few very high spikes in firing rate

B1: Arch 3 WT: wild type Archaerhodopsin 3, light-driven proton pump from Halorubrum sodomense used as fluorescent voltage indicator (protein, UniProt P96787 7-258, looked up)
Archaerhodopsin-3: QAGYDLLGDGRPETLWLGIGTLLMLIGTFYFLVRGWGVTDKDAREYYAVTILVPGIASAAYLSMFFGIGLTEVTVGGEMLDIYYARYADWLFTTPLLLLDLALLAKVDRVTIGTLVGVDALMIVTGLIGALSHTAIARYSWWLFSTICMIVVLYFLATSLRSAAKERGPEVASTFNTLTALVLVLWTAYPILWIIGTEGAGVVGLGIETLLFMVLDVTAKVGFGFILLRSRAILGDTEAPEPSAGADVSAAD
time to 90% of step response [6]: 0.6 ms
response time ([6]; Arch indicators): < 0.5 ms and 0.6 ms
smallest voltage steps reported [7]: 10 mV
fluorescence increase (factor) ([7]; between −150 mV and +150 mV): 2
response of fluorescence to a step in membrane potential ([7]; rising and falling edge, time resolution of imaging system): ≤ 500 micro s
fluorescence oscillation amplitude retained relative to low-frequency amplitude ([7]; sinusoidally varying membrane potential, f=1 kHz): 55%
step response time ([7]; steps between −70 mV and +30 mV, resolution of imaging system): < 0.5 ms
accuracy of reported voltage ([7]; timescales<12 s): 625 micro V/(Hz)̂(1/2)

B2: Arch D95N: Archaerhodopsin 3 with D95N mutation, voltage indicator (protein, UniProt P96787 7-258, looked up, variant D95N)
Archaerhodopsin-3: B1 Archaerhodopsin-3 with D89N
f (delta F/F per 100 mV) ([6]; Arch indicators): 100%
response time ([6]; Arch indicators): 41 ms
